According to PMC10888717, “Identification of Novel Non-Nucleoside Inhibitors of Zika Virus NS5 Protein Targeting MTase Activity” (International Journal of Molecular Sciences, 2024):
Read-outs that look alike come from different tables or passages of the source.

Tests used:
ZIKV NS5 MTase = target: T1, ZIKV NS5 MTase (Zika virus, UniProt A0A024B7W1); test: ZIKV NS5 MTase radioactive filter-binding assay (2′-O-MTase activity); format: biochemical; details: at least two experiments; for IC50: read-out: IC50 (half-maximal inhibitory enzymatic concentration)
T1 construct: KJ776791.2, aa 4–278; His6 (N); made in house; host or cells: Escherichia coli T7 Express Iq
T1 sequence (A0A024B7W1 2524-2798): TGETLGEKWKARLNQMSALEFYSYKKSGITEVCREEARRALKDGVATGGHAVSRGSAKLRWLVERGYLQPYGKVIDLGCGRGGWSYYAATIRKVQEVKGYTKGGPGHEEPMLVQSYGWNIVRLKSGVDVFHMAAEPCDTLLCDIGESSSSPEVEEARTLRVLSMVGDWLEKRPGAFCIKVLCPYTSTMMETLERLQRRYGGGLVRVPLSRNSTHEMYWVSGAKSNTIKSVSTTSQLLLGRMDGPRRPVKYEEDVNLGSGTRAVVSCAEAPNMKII
Procedure: Selected compounds were evaluated in enzymatic inhibition assays against both ZIKV and DENV 2′-O-MTase activity (For details, see Figure S3 in Supplementary Materials). The screening of compounds at a concentration of 50 µM highlighted a higher inhibitory activity against ZIKV MTase. We thus focused our efforts on ZIKV and determined the IC50 values against ZIKV MTase.
Expression and purification of ZIKV NS5 MTase: The coding sequence of the ZIKV NS5 MTase domain (strain H/PF/2013, GenBank accession no. KJ776791.2, aa 4–278) was synthesized by Genscript and cloned into a pQE30 vector (Qiagen, Hilden, Germany) with an N-terminal His6 tag. The protein was expressed and purified following the procedures described in Coutard et al..
Briefly, after expression in Escherichia coli T7 Express Iq (New England BioLabs) in Terrific Broth at 17 °C overnight, bacterial pellets were resuspended in lysis buffer (50 mM Tris-HCl [pH 8], 300 mM NaCl, 5% glycerol, 0.1% Triton, 10 μg/mL DNase I, 2 tablets of EDTA-free antiprotease cocktail [Roche] and 0.25 mg/mL lysozyme). Following cell lysis and clarification, the protein was purified by affinity on immobilized metal affinity chromatography (IMAC, His prep column [GE Healthcare]), followed by size exclusion chromatography (Superdex S75 HR 16/20 column [GE Healthcare]). The NS5-MTase was concentrated and stored at −20 °C after adding glycerol to a final concentration of 40%.
Filter-binding assay: The transfer of tritiated methyl from ^[3H]SAM onto RNA substrate was monitored by a filter-binding assay (FBA), performed according to the method described previously. FBA was carried out in a reaction mixture [40 mM Tris-HCl (pH 8.0), 1 mM DTT, 2 μM SAM, and 0.1 μM 3H-SAM (Perkin Elmer, Shelton, CT, USA)] in the presence of 0.7 μM synthetic ^7mGpppAC4 and ZIKV NS5 MTase (500 nM). The enzyme was first mixed with an increasing concentration of inhibitors, previously suspended in dimethyl sulfoxide (DMSO), before the addition of RNA substrate and SAM, and then incubated at 30 °C. The final DMSO concentration in reactions was 5%. Reaction mixtures were stopped after 30 min incubation by their 10-fold dilution in ice-cold water. Samples were transferred to diethylaminoethyl (DEAE) filtermat (Perkin Elmer, Shelton, CT, USA) using a Filtermat Harvester (Packard Instruments, Meriden, CT, USA). The RNA-retaining mats were washed twice with 10 mM ammonium formate pH 8.0, twice with water, and once with ethanol before drying. They were soaked with scintillation fluid (Perkin Elmer, Shelton, CT, USA), and 3H-methyl transfer to the RNA substrates was determined using a Wallac MicroBeta TriLux Liquid Scintillation Counter (Perkin Elmer, Shelton, CT, USA). For IC50 measurements, values were normalized and fitted with Prism (GraphPad software version 10.1.1) using the following equation: Y = 100/(1 + ((X/IC50) ^ Hillslope)).

[1] = Cytotoxicity assay (MTT) on Vero E6 cells; format: cell-based; details: African green monkey
Procedure: Compounds characterized by the best anti-enzymatic activity were tested against ZIKV in cellular assays. VERO E6 cells were infected with ZIKV at a multiplicity of infection (M.O.I.) of 0.1, and their activities were evaluated by a plaque reduction assay three days post-infection. Ribavirin was used as a reference compound. As reported in Table 2, compound 1, identified in the first screening, was unable to inhibit viral replication up to a 100 μM concentration. […] The cytotoxicity of the series was determined on the same cell line. […] Their selectivity indexes were calculated as the ratio between CC50 and IC50 values; the results highlight their promising safety profile.
Monolayers of 2.5 × 10^4 Vero E6 cells per well were grown in flat-bottom 96-well culture plates and allowed to adhere overnight. Then, when the cell layers were confluent, the medium was removed, the wells were washed twice with PBS, treated with 100 µL of DMEM with 10 µL DMSO alone (cell positive control) or with various concentrations of anti-NS5 inhibitory compounds under study (compound final concentrations of 100, 10, 1, 0.1, and 0.01 μM), and incubated for 3 days at 37 °C in a CO2. After treatment, an MTT (3-(4,5-dimethylthiazol-2-yl)-2,5-diphenyltetrazolium bromide) kit (Roche, Milan, Italy) was used according to the supplier’s instructions, and the absorbance of each well was determined using a microplate spectrophotometer at a wavelength of 570 nm. Cytotoxicity was calculated by dividing the average optical density of treated samples by the average of DMSO-treated samples (cell positive control).

ZIKV [2] = test: ZIKV inhibitory viral plaque reduction assay in Vero E6 cells; format: cell-based, Zika virus; details: for IC50: Zika virus
ZIKV [3] = details: cited from earlier work
[4] = Metabolic stability in human liver microsomes; format: in vitro ADME; details: 1 h, 37 °C, three experiments
Procedure: The metabolic stability was investigated by incubating selected compounds with human liver microsomes (HLMs) for 1 h at 37 °C. The percentage of non-metabolized compounds and metabolites was analyzed by HPLC-UV-MS. […] HPLC analysis confirmed the presence of the oxidated metabolites in small percentages.
(§1) For the ADME property determination, an Agilent 1260 Infinity HPLC-DAD interfaced with an Agilent MSD 6130 (Agilent Technologies, Palo Alto, CA, USA) was used. Chromatographic conditions were optimized using a Phenomenex Kinetex C18-100 Å column (150 × 4.6 mm) with 5 µm particle size and gradient elution with a binary solution (eluent A: H2O; eluent B: ACN; both eluents were acidified with formic acid 0.1% v/v) at room temperature. The LC analyses started with 5% of B (from t = 0 to t = 1 min), then B was increased to 95% (from t = 1 to t = 10 min) and then kept at 95% (from t = 10 to t = 19 min) and finally returned to initial conditions in 1.0 min. The flow rate was 0.6 mL/min and the injection volume was 10 µL.
The test was performed as previously reported with minor modifications. Each compound was dissolved in DMSO and phosphate buffer (0.025 M, pH 7.4), and human liver microsomes (0.2 mg/mL) and a NADPH-regenerating system in MgCl2 48 mM were added to a final volume of 500 µL. This solution was incubated for 1 h at 37 °C and then the reaction was stopped and quenched using 1 mL of ACN. The reaction mixtures were then centrifuged (4000 rpm for 10 min) and the supernatant was taken, dried under nitrogen flow, and then resuspended in 100 µL of methanol. The parent drug and metabolites were subsequently determined using the chromatographic conditions described above. The percentage of non-metabolized compounds was calculated by comparison with reference solutions. The determination of metabolic stability for each compound was performed in three independent experiments.

[5] = Stability test in human plasma; format: in vitro ADME; details: pH 7.4, 37 °C, up to 24 h, read-out: Plasma Stab. (T1/2, h ± SD) (converted)
Procedure: Finally, compounds were incubated in human plasma at 37 °C for 24 h. […] Taken together, stability studies confirmed that the series is suitable for further development.
as §1
A stock solution of the target compound in DMSO (2 mM) was incubated in a test tube with pooled human plasma (55.7 mg protein/mL) and HEPES buffer (25 mM, 140 mM NaCl pH 7.4) up to a final volume of 1.0 mL. The mixture was incubated at 37 °C, and at set time points (0.0, 0.5, 1, 4, 8, 24 h), samples of 50 µL were taken, mixed with 400 µL of ACN to stop the reaction of plasmatic esterases, and centrifuged at 5000 rpm for 15 min. The supernatant was removed and analyzed using the LC-UV/MS method previously described. The half-life (t½) was calculated according to the following equation: t½=ln 2/k where k represents the substrate elimination constant. For each compound, the determination was performed in three independent experiments.

DENV MTase = DENV MTase enzymatic inhibition assay; format: biochemical, Dengue virus; details: read-out: IC50 against DENV MTase
Excerpt: Firstly, a pharmacophoric model was developed taking into consideration the most populated interactions (Figure 1C). The pharmacophore was used to perform a first screening, choosing molecules matching the pharmacophore features representing the interactions of the SAM adenine group and at least one of the two groups of features representing the interaction of SAM methionine moieties, with the aim of identifying compounds able to form interactions within both the adenine and the methionine subpockets of the SAM-binding site. The obtained results were then subjected to docking analysis using Glide XP, Glide SP, and GOLD (using the GoldScore fitness function). At the end of each docking procedure, a post-docking filter was applied to check whether the desired pharmacophoric interactions were maintained in the predicted binding modes of the docked compounds. Only the ligands for which a common binding mode matching the desired pharmacophore features was predicted by all the docking software were retained and then subjected to clustering and visual inspection. […]
Selected compounds were evaluated in enzymatic inhibition assays against both ZIKV and DENV 2′-O-MTase activity (For details, see Figure S3 in Supplementary Materials). […] We thus focused our efforts on ZIKV and determined the IC50 values against ZIKV MTase.

[6] = VERO E6 cells, MTT, 3 days, read-out: CC50 ± SD (half-maximal cytotoxic concentration)
[7] = Vero C1008, read-out: IC50 ± SD (half-maximal inhibitory concentration, ZIKV plaque reduction)

| Structure (SMILES) | IC50 (ZIKV NS5 MTase) [µM] | CC50 at 3 days [1, 6] [µM] | SI (Selectivity Index, ratio between CC50 and IC50) (ZIKV [2]; VERO E6 cells) | IC50 (ZIKV [2]; [7]) [µM] | also measured |
| --- | --- | --- | --- | --- | --- |
| CN1C(=O)c2ccc(NC(=O)c3cc4cc([N+](=O)[O-])ccc4s3)cc2C1=O [Compound 3] | 16.6 | > 100 | >3.49 | 28.6 ± 1.3 |  |
| NC(=O)c1ncn([C@@H]2O[C@H](CO)[C@@H](O)[C@H]2O)n1 [ribavirin, 1-β-d-Ribofuranosyl-1,2,4-Triazole-3-Carboxamide, reference compound] |  |  | 1.05 |  | EC50 against ZIKV (ZIKV [3]): high micromolar range; CC50 at 3 days [1]: 100 ± 14 µM; IC50 (ZIKV [2]; Vero C1008, VERO E6 cells, ZIKV M.O.I. 0.1, at least two experiments, read-out: IC50 ± SD (half-maximal inhibitory concentration, ZIKV plaque reduction)): 95.5 ± 0.6 µM |
| CN1C(=O)c2ccc(NC(=O)c3cc4cc(Cl)ccc4s3)cc2C1=O [Compound 15] | 14.2 | > 100 | >71.43 | 1.4 ± 0.3 | HLM Stab.% ± SD (percentage of non-metabolized compound) [4]: 98.57 ± 0.07%; half-life [5]: > 24 h |
| Cc1cccc2cc(C(=O)Nc3ccc4c(c3)C(=O)N(C)C4=O)sc12 [Compound 20] | 18.9 | > 100 | >15.15 | 6.6 ± 0.5 | HLM Stab.% ± SD (percentage of non-metabolized compound) [4]: 98.40 ± 0.12%; half-life [5]: > 24 h |
| O=C(Nc1ccc2c(c1)C(=O)NC2=O)c1cc2cc([N+](=O)[O-])ccc2s1 [Compound 1] | 53 | > 100 |  | > 100 | IC50 (DENV MTase): 69 µM |
| O=C(Nc1ccc2c(c1)C(=O)NC2)c1cc2cc([N+](=O)[O-])ccc2s1 [Compound 2] | 20 |  |  |  |  |

Further lines, with some results ahead:

| IC50 (ZIKV NS5 MTase) [µM] | Structure (SMILES) | CC50 at 3 days [1, 6] [µM] | SI (Selectivity Index, ratio between CC50 and IC50) (ZIKV [2]; VERO E6 cells) | IC50 (ZIKV [2]; [7]) [µM] | also measured |
| --- | --- | --- | --- | --- | --- |
| 34 | NS(=O)(=O)c1cccc(NC(=O)c2cc3cc([N+](=O)[O-])ccc3s2)c1 [Compound 4] |  |  |  |  |
| > 100 | CNC(=O)c1ccc(NC(=O)c2cc3ccccc3s2)cc1 [Compound 11] |  |  |  | IC50 (half-maximal inhibitory enzymatic concentration) (ZIKV NS5 MTase): completely abolished the activity |
| 31 | CN1C(=O)c2ccc(NC(=O)c3cc4ccccc4s3)cc2C1=O [Compound 14] |  |  |  |  |
| 36 | NC(=O)c1ccc(NC(=O)c2cc3ccccc3s2)cc1 [Compound 10] |  |  |  |  |
| 37 | NC(=O)c1ccc(NC(=O)c2cc3cc([N+](=O)[O-])ccc3s2)cc1 [Compound 5] |  |  |  |  |
